Measurements published in BindingDB's records for doi:10.1016/s0960-894x(02)00137-3 (Kingston University, 2002).

biological target: T1, Steryl-sulfatase (Homo sapiens, UniProt P08842); experiment: ChEBML_68022
T1 sequence (P08842 whole entry): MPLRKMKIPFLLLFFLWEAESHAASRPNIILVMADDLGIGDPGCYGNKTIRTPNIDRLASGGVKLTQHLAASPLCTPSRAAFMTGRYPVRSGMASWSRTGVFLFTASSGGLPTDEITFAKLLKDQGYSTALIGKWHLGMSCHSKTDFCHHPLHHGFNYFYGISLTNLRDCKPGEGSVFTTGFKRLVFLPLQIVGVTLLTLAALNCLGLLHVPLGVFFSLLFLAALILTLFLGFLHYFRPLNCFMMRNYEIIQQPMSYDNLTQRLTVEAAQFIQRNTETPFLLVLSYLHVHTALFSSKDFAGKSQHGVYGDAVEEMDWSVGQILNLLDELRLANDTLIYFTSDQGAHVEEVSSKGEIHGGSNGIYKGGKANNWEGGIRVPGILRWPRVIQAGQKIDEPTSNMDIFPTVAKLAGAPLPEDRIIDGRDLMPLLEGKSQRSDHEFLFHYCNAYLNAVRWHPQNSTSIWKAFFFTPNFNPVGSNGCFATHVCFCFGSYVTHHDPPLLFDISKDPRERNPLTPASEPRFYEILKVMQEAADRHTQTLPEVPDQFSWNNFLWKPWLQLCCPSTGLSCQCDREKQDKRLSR
Source text: In vitro inhibition of estrone sulfatase.

SMILES | IC50
NS(=O)(=O)Oc1ccccc1 | > 10000 µM
NS(=O)(=O)Oc1ccc(F)cc1 [4-fluorophenyl sulfamate] | 537 µM
NS(=O)(=O)OCC(Cl)(Cl)Cl [Sulfamic acid 2,2,2-trichloro-ethyl ester] | 750 µM
NS(=O)(=O)Oc1cccc(I)c1 [Sulfamic acid 3-iodo-phenyl ester] | 120 µM
NS(=O)(=O)Oc1ccc(I)cc1 [Sulfamic acid 4-iodo-phenyl ester] | 560 µM
Cc1cccc(OS(N)(=O)=O)c1 [Sulfamic acid m-tolyl ester] | 2090 µM
Cc1ccc(OS(N)(=O)=O)cc1 [Sulfamic acid p-tolyl ester] | > 10000 µM
